Laboratory results: patent publication US5661182A, “Method for lowering oxygen affinity of hemoglobin in redcell suspensions, in whole blood and in vivo” (Virginia Commonwealth University, priority 1995, dated 1997)
“Also recorded” adds a separate entry of the source.

How the values were obtained:
rat erythrocytes = assay: Hemolysis of rat erythrocytes
human red cells = assay: Hemolysis of human red cells in vitro; assay type: cell-based
bovine red cells = assay: Hemolysis of bovine red cells in vitro; assay type: cell-based
stored human RBCs = stored human RBCs (Homo sapiens, UniProt P68871+P69905); assay: Outdated blood studies: oxygen dissociation curves of stored red blood cells; assay type: cell-based; details: for p50 / ΔY [Y(90%)-Y(40%)]: 40-day-old stored human RBCs
Protocol: Outdated Blood Studies. For the outdated blood studies, 40-day-old packed red cells (80% hematocrit) were obtained from the blood bank at the Medical College of Virginia, Richmond, Va. The cells had been stored in Adsol formulation at 1°-4° C., pH 6.84. Fresh red cells obtained from volunteers were used for the control studies in Table III. The fresh red blood cells were centrifuged and washed with saline, pH 6.8. The oxygen dissociation curves were recorded on an Aminco Hem-O-Scan (Travenol Laboratories).
Outdated Blood Studies. The capability of RSR-13 to restore the oxygen affinity of stored blood was investigated. The procedure involved measurement of the oxygen equilibrium curves on red cell suspensions, which were stored in Adsol formulations at 4° C., in either the absence (controls) or presence of RSR-13. Table 3 presents the p50 (mmHg) and ΔY (%) [Y(90%)-Y(40%)] for outdated red blood cell suspensions (forty days) in the presence or absence of RSR-13.

stored human RBCs, sequence (P69905 whole entry): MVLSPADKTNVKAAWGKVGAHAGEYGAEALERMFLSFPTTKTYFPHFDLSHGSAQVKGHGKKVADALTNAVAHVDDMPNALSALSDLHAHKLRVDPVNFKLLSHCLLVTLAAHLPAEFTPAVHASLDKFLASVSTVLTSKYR
stored human RBCs, sequence (P68871 whole entry): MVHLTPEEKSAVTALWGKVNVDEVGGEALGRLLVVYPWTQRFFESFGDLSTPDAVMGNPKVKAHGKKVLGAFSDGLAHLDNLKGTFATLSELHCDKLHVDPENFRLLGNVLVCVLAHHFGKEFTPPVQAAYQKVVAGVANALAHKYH

| pH of RBC solution versus untreated samples (stored human RBCs; 4 mM) | p50 (stored human RBCs; 1 mM) [mm Hg] | ΔY [Y(90%)-Y(40%)] (stored human RBCs; 1 mM) [%] | p50 (stored human RBCs; 2 mM) [mm Hg] | ΔY [Y(90%)-Y(40%)] (stored human RBCs; 2 mM) [%] | SMILES | hemolysis (rat erythrocytes) | hemolysis (human red cells) | hemolysis (bovine red cells) | restoration / preservation of oxygen transport capabilities (stored human RBCs; 40-day-old RBC, 1 mM, or added prior to measurements or during storage) | hemolysis (stored human RBCs; stored human red cells, end of experiments) |
| --- | --- | --- | --- | --- | --- | --- | --- | --- | --- | --- |
| – | – | – | – | – | CC(C)(Oc1ccc(CC(=O)Nc2cc(Cl)cc(Cl)c2)cc1)C(=O)O [RSR-4, 2-[4-[[(3,5-dichloroanilino)carbonyl]methyl]phenoxy]-2-methylpropionic acid] | Significant hemolysis | No hemolysis | No hemolysis | – | – |
| higher than that of untreated samples | 39 | 37 | 45 | 40 | Cc1cc(C)cc(NC(=O)Cc2ccc(OC(C)(C)C(=O)O)cc2)c1 [RSR-13] | – | – | – | able to restore, to near normal the oxygen transport capabilities (p50 and ΔY) of 40-day-old red blood cells; also recorded: preserved the oxygen delivery capabilities of red cell hemoglobin | no indication of hemolysis |
